Reference: patent publication US20120138290A1, “METHODS TO STIMULATE BIOGENIC METHANE PRODUCTION FROM HYDROCARBON-BEARING FORMATIONS” (SYNTHETIC GENOMICS, INC., priority 2010, published 2012)
“And” between values parts separate entries of the source, which are not always exact repeats. Identical values can stand only once. Like-named read-outs stand apart in the source and are kept apart here.

System: functional microbial subcommunity (inoculum 2L-245 from upflow reactor)
Assay: Stimulation of methane production: batch cultures with additive/stimulant, with or without coal, headspace methane by gas chromatography
Assay type: cell-based
Procedure: The availability of an inoculum of a functional microbial subcommunity capable of producing methane from coal in vitro prompted laboratory experiments where various stimulants were tested for their effect on methane production. […] The experiments were conducted at three different levels of additives (0.5×, 1× and 2×): additives (stimulants) were added in the following three concentrations. […] DMY media: DM media composition in milli-Q water is made as described above with the addition of 0.5 g/L yeast extract. DMSC media: DM media in milli-Q water is made as described above with the addition of 100 g/L sterile, anaerobic, sub-bituminous coal from the San Juan Basin. DMSCY media: DM media in milli-Q water is made as described above with the addition of 100 g/L sterile, anaerobic, sub-bituminous coal from the San Juan Basin and 0.5 g/L yeast extract. The coal used in these experiments originated from the San Juan Basin (BHP Billiton, Tex.). […] Each stimulant was tested in the presence or absence of coal. The experiments were conducted at three different concentrations of additives (0.5× (low), 1× (medium), and 2× (high)) as described above. Each sample type was conducted in 4 replicates. […] Control sample types were media alone, media plus coal, media plus yeast extract and media plus coal and yeast extract. At each time point, headspace measurements were taken using gas chromatography (microGC […], Agilent Technologies, Inc.). […] Each experiment was performed in quadruplicate. Methane at time 0 was assumed to be 0%.

[1] = DMSCY (coal), 2.0 mM KCl, week 1
[2] = DMSCY (coal), 2.0 mM KCl, week 3
[3] = DMSCY (coal), 2.0 mM KCl, week 5
[4] = DMSCY (coal), 4.0 mM KCl, week 1
[5] = DMSCY (coal), 4.0 mM KCl, week 3
[6] = DMSCY (coal), 4.0 mM KCl, week 5
[7] = DMSCY (coal), 8.0 mM KCl, week 1
[8] = DMSCY (coal), 8.0 mM KCl, week 3
[9] = DMSCY (coal), 8.0 mM KCl, week 5
[10] = DMY (no coal), 2.0 mM KCl, week 1
[11] = DMY (no coal), 2.0 mM KCl, week 3
[12] = DMY (no coal), 2.0 mM KCl, week 5
[13] = DMY (no coal), 4.0 mM KCl, week 1
[14] = DMY (no coal), 4.0 mM KCl, week 3
[15] = DMY (no coal), 4.0 mM KCl, week 5
[16] = DMY (no coal), 8.0 mM KCl, week 1
[17] = DMY (no coal), 8.0 mM KCl, week 3
[18] = DMY (no coal), 8.0 mM KCl, week 5
[19] = DMSCY (coal), 5 mM NH4Cl, week 1
[20] = DMSCY (coal), 5 mM NH4Cl, week 3
[21] = DMSCY (coal), 5 mM NH4Cl, week 5
[22] = DMSCY (coal), 10 mM NH4Cl, week 1
[23] = DMSCY (coal), 10 mM NH4Cl, week 3
[24] = DMSCY (coal), 10 mM NH4Cl, week 5
[25] = DMSCY (coal), 20 mM NH4Cl, week 1
[26] = DMSCY (coal), 20 mM NH4Cl, week 5
[27] = DMY (no coal), 5 mM NH4Cl, week 1
[28] = DMY (no coal), 5 mM NH4Cl, week 3
[29] = DMY (no coal), 5 mM NH4Cl, week 5
[30] = DMY (no coal), 10 mM NH4Cl, week 1
[31] = DMY (no coal), 20 mM NH4Cl, week 1
[32] = DMY (no coal), 20 mM NH4Cl, week 3
[33] = DMY (no coal), 20 mM NH4Cl, week 5
[34] = DMSCY (coal), 5.0 μM Na2MoO4, week 1
[35] = DMSCY (coal), 5.0 μM Na2MoO4, week 3
[36] = DMSCY (coal), 5.0 μM Na2MoO4, week 5
[37] = DMSCY (coal), 10 μM Na2MoO4, week 1
[38] = DMSCY (coal), 10 μM Na2MoO4, week 3
[39] = DMSCY (coal), 10 μM Na2MoO4, week 5
[40] = DMY (no coal), 5.0 μM Na2MoO4, week 1
[41] = DMY (no coal), 5.0 μM Na2MoO4, week 3
[42] = DMY (no coal), 5.0 μM Na2MoO4, week 5
[43] = DMY (no coal), 10 μM Na2MoO4, week 1
[44] = DMY (no coal), 10 μM Na2MoO4, week 3
[45] = DMY (no coal), 10 μM Na2MoO4, week 5

SMILES: [Cl-].[K+] [KCl, potassium chloride]
- methane production (Average) [1]: 0.34
- methane production (RepA-Rep D) [1]: 0.35 and 0.30 and 0.32 and 0.39
- methane production (Average) [2]: 1.14
- methane production (RepA-Rep D) [2]: 1.12 and 1.25 and 1.04 and 1.16
- methane production (Average) [3]: 1.39
- methane production (RepA-Rep D) [3]: 1.32 and 1.49 and 1.30 and 1.47
- methane production (Average) [4]: 0.4
- methane production (RepA-Rep D) [4]: 0.44 and 0.43 and 0.46
- methane production (Average) [5]: 1.50
- methane production (RepA-Rep D) [5]: 1.35 and 1.46 and 1.60 and 1.57
- methane production (Average) [6]: 1.69
- methane production (RepA-Rep D) [6]: 1.59 and 1.87 and 1.70
- methane production (Average) [7]: 0.3936
- methane production (RepA-Rep D) [7]: 0.3871 and 0.3364 and 0.4219 and 0.429
- methane production (Average) [8]: 1.327
- methane production (RepA-Rep D) [8]: 1.346 and 1.301 and 1.36 and 1.304
- methane production (Average) [9]: 1.562
- methane production (RepA-Rep D) [9]: 1.564 and 1.478 and 1.557 and 1.649
- methane production (Average) [10]: 0.30
- methane production (RepA-Rep D) [10]: 0.29 and 0.30 and 0.32
- methane production (Average) [11]: 0.81
- methane production (RepA-Rep D) [11]: 0.99 and 0.79 and 0.78 and 0.70
- methane production (Average) [12]: 0.77
- methane production (RepA-Rep D) [12]: 0.78 and 0.75 and 0.79
- methane production (Average) [13]: 0.23
- methane production (RepA-Rep D) [13]: 0.23 and 0.22 and 0.24
- methane production (Average) [14]: 0.26
- methane production (RepA-Rep D) [14]: 0.24 and 0.26 and 0.29
- methane production (Average) [15]: 0.29
- methane production (RepA-Rep D) [15]: 0.23 and 0.26 and 0.40
- methane production (Average) [16]: 0.2015
- methane production (RepA-Rep D) [16]: 0.2005 and 0.2037 and 0.195 and 0.2068
- methane production (Average) [17]: 0.2178
- methane production (RepA-Rep D) [17]: 0.2211 and 0.2119 and 0.2206 and 0.2177
- methane production (Average) [18]: 0.2151
- methane production (RepA-Rep D) [18]: 0.2177 and 0.2082 and 0.2231 and 0.2112
- effect on methanogenesis (absence of coal (DMY), >2 mM KCl): greatly decreased methanogenesis
- trend in methane production (week 5, KCl-containing samples): decreasing trend

SMILES: Cl.N [NH4Cl, ammonium chloride]
- methane production (Average) [19]: 0.31
- methane production (RepA-Rep D) [19]: 0.35 and 0.27 and 0.31 and 0.30
- methane production (Average) [20]: 1.11
- methane production (RepA-Rep D) [20]: 1.24 and 1.03 and 1.13
- methane production (Average) [21]: 1.50
- methane production (RepA-Rep D) [21]: 1.67 and 1.41 and 1.48 and 1.43
- methane production (Average) [22]: 0.25
- methane production (RepA-Rep D) [22]: 0.25 and 0.22 and 0.28
- methane production (Average) [23]: 1.30
- methane production (RepA-Rep D) [23]: 1.22 and 1.43 and 1.41 and 1.14
- methane production (Average) [24]: 2.22
- methane production (RepA-Rep D) [24]: 1.98 and 2.70 and 2.67 and 1.54
- methane production (Average) [25]: 0.22
- methane production (RepA-Rep D) [25]: 0.24 and 0.22 and 0.21
- methane production (Average) (DMSCY (coal), 20 mM NH4Cl, week 3): 1.18
- methane production (Average) [26]: 1.46
- methane production (RepA-Rep D) [26]: 1.63 and 1.48 and 1.37 and 1.36
- methane production (Average) [27]: 0.26
- methane production (RepA-Rep D) [27]: 0.26 and 0.27
- methane production (Average) [28]: 0.71
- methane production (RepA-Rep D) [28]: 0.74 and 0.68 and 0.67
- methane production (Average) [29]: 0.66
- methane production (RepA-Rep D) [29]: 0.69 and 0.65 and 0.62
- methane production (Average) [30]: 0.20
- methane production (RepA-Rep D) [30]: 0.22 and 0.21 and 0.15
- methane production (Average) (DMY (no coal), 10 mM NH4Cl, week 3): 0.57
- methane production (Average) (DMY (no coal), 10 mM NH4Cl, week 5): 0.58
- methane production (Average) [31]: 0.22
- methane production (RepA-Rep D) [31]: 0.23 and 0.22 and 0.21
- methane production (Average) [32]: 0.77
- methane production (RepA-Rep D) [32]: 0.80 and 0.78 and 0.76
- methane production (Average) [33]: 0.78
- methane production (RepA-Rep D) [33]: 0.80 and 0.79 and 0.76 and 0.77
- effect on the production of methane (intermediate concentration of the stimulant (FIGS. 1A, 1B, 2A)): statistically significant positive effect
- dependence of methane production on coal (with or without coal): only observed in presence of coal

SMILES: [Na+].[Na+].[O]=[Mo](=[O])([O-])[O-] [Na2MoO4, sodium molybdic]
- methane production (Average) [34]: 0.34
- methane production (RepA-Rep D) [34]: 0.39 and 0.28 and 0.31
- methane production (Average) [35]: 1.19
- methane production (RepA-Rep D) [35]: 1.13 and 1.09 and 1.14 and 1.40
- methane production (Average) [36]: 1.41
- methane production (RepA-Rep D) [36]: 1.39 and 1.31 and 1.29 and 1.63
- methane production (Average) [37]: 0.44
- methane production (RepA-Rep D) [37]: 0.43 and 0.47 and 0.44
- methane production (Average) [38]: 1.10
- methane production (RepA-Rep D) [38]: 1.03 and 1.15 and 1.14 and 1.07
- methane production (Average) [39]: 1.13
- methane production (RepA-Rep D) [39]: 1.11 and 1.14 and 1.15 and 1.13
- methane production (Average) [40]: 0.29
- methane production (RepA-Rep D) [40]: 0.25 and 0.27 and 0.30 and 0.33
- methane production (Average) [41]: 0.83
- methane production (RepA-Rep D) [41]: 0.77 and 0.85 and 0.79 and 0.91
- methane production (Average) [42]: 0.79
- methane production (RepA-Rep D) [42]: 0.76 and 0.78 and 0.74 and 0.87
- methane production (Average) [43]: 0.29
- methane production (RepA-Rep D) [43]: 0.30 and 0.26 and 0.32
- methane production (Average) [44]: 0.82
- methane production (RepA-Rep D) [44]: 0.85 and 0.71 and 0.81 and 0.90
- methane production (Average) [45]: 0.77
- methane production (RepA-Rep D) [45]: 0.77 and 0.72 and 0.74 and 0.83
- correlation of methane production with molybdate added to the cultures (FIG. 3B): negative correlation
- difference of effects with or without coal (molybdate, P=0.063): not statistically significantly different

SMILES: O=S([O-])([O-])=S.[Na+].[Na+] [Na2S2O3, sodium thiosulfate]
- dependence of methane production on coal: only observed in the presence of coal
- effect on the production of methane: statistically significant positive effect
